16 molecules from patent US11584737B2, “Heterocyclic compound” (TAKEDA PHARMACEUTICAL COMPANY LIMITED, priority 2018, dated 2023) can be followed below.

In one test the target is CDK12/CycK complex (Homo sapiens, UniProt Q9NYV4). The experiment in a line: Measurement of CDK12 inhibitory activity by binding assay (BODIPY-FL labeled AT-7519 high concentration conditions, 1320 nM). The note with it: inhibitory rate against CDK12 at 1 μM test compound, 1320 nM BODIPY-FL-labeled AT-7519, 8 nM CDK12/CycK. On the procedure:
(4) Measurement of CDK12 Inhibitory Activity by Binding Assay (BODIPY-FL Labeled AT-7519 High Concentration Conditions)
His-tagged CDK12/CycK complex was blended with a binding assay buffer supplemented with BODIPY-FL labeled AT-7519, terbium-labeled streptavidin and biotin-labeled anti-histidine antibody. This solution was added to an assay plate containing a test compound dispensed therein, and the mixture was left standing for 120 min at room temperature. The final concentration of CDK12/CycK complex, BODIPY-FL-labeled AT-7519, terbium-labeled streptavidin and biotin-labeled anti-histidine antibody was set to 8 nM, 1320 nM, 0.2 nM, and 0.4 nM, respectively. The fluorescence intensity derived from terbium and BODIPY-FL was measured using Envision. The signal value of each well was determined using the TR-FRET ratio calculated by the following formula. TR-FRET ratio=(fluorescence value of BODIPY-FL)÷(fluorescence value of terbium)
The inhibitory rate (%) of the test compound against CDK12 was calculated by the following formula. Inhibitory rate (%)=(1−(TR-FRET ratio of test compound−blank)÷(control−blank))×100
The TR-FRET ratio of the CDK12 enzyme reaction mixture under compound non-addition conditions is indicated as control, and the TR-FRET ratio under 30 μM AT-7519 addition conditions is indicated as blank.
The inhibitory rate of the test compound against CDK12 at 1 μM is shown below.

For the next test, the system named is A2780 cells. Description: In vitro proliferation suppression test (CellTiter-Glo). The test is classed as cell-based, human. The note with it: A2780 cell proliferation inhibitory rate at 1 μM test compound, three days; for inhibition at 1 µM: Homo sapiens, 72 h. The protocol:
Experimental Example 4: In Vitro Proliferation Suppression Test
The proliferation suppressive activity of compound in A2780 cells was evaluated by the following method.
A2780 cells were seeded in a 384-well white plate at a cell density of 1,000 cells/40 μL/well or a 96-well white plate at a cell density of 1,000 cells/90 μL/well using an assay medium (RPMI1640 medium containing 10% fetal bovine serum (FUJIFILM Wako Pure Chemical Corporation)) and incubated at 37° C. in 5% CO2.
The next day, a test compound dissolved in dimethyl sulfoxide (DMSO) was diluted with an assay medium, the obtained compound solution was added by 40 μL/well or 10 μL/well to each well of the plate containing A2780 cells and the mixture was incubated (test compound addition group). In addition, a similar reaction was performed without adding the test compound (test compound non-addition group).
Three days later, 80 μL or 100 μL of CellTiter-Glo reagent (Promega) was added, and the mixture was stirred for 10 min. Thereafter, the luminescence of each well was measured by ARVO-MX multilabel counter (Perkin Elmer Inc.).
The proliferation inhibitory rate (%) of each test compound against A2780 cells was calculated by the following calculation formula. Proliferation inhibitory rate (%)=(1−luminescence of test compound addition group÷luminescence of test compound non-addition group)×100
The A2780 cell proliferation inhibitory rate (%) of 1 μM test compound is shown below.

Sequence of CDK12/CycK complex (Q9NYV4 whole entry, species assumed): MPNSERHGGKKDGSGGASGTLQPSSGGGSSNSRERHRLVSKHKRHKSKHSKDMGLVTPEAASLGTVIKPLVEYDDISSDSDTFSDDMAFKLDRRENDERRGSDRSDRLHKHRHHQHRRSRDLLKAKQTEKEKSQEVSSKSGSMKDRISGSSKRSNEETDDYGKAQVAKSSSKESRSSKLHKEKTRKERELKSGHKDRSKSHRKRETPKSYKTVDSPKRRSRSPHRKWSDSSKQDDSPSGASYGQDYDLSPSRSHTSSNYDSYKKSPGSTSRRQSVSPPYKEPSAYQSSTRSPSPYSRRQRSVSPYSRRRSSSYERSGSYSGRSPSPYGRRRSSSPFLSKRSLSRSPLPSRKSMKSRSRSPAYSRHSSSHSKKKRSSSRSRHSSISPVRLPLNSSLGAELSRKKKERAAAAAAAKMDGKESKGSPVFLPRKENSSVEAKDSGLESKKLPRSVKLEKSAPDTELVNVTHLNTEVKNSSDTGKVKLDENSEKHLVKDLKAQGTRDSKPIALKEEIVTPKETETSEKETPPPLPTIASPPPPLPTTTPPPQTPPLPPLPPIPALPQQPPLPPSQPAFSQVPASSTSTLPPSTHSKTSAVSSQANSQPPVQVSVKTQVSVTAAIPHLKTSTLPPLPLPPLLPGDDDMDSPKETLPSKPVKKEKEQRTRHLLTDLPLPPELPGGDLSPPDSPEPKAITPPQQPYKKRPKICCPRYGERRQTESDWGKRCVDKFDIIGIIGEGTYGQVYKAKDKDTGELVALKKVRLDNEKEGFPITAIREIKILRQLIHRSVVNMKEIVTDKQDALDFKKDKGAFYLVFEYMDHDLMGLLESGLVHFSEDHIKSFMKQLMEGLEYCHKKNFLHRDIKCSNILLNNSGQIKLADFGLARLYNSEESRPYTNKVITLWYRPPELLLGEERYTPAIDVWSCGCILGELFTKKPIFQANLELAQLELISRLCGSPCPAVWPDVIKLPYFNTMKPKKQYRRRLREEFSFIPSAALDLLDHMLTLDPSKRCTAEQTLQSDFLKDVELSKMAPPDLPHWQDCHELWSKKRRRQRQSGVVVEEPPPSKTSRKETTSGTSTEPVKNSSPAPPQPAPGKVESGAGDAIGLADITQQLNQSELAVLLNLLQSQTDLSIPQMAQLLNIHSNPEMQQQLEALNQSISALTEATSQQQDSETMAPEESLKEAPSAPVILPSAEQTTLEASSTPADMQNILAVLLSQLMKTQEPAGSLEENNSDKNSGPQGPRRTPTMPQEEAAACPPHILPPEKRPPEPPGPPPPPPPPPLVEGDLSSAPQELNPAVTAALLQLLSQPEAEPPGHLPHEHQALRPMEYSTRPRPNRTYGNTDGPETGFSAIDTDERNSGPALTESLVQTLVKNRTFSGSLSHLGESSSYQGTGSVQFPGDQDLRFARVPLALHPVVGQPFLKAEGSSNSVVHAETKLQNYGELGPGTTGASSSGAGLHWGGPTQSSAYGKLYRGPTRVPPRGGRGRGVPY
Sequence of CDK12/CycK complex (O75909 whole entry partner, species assumed): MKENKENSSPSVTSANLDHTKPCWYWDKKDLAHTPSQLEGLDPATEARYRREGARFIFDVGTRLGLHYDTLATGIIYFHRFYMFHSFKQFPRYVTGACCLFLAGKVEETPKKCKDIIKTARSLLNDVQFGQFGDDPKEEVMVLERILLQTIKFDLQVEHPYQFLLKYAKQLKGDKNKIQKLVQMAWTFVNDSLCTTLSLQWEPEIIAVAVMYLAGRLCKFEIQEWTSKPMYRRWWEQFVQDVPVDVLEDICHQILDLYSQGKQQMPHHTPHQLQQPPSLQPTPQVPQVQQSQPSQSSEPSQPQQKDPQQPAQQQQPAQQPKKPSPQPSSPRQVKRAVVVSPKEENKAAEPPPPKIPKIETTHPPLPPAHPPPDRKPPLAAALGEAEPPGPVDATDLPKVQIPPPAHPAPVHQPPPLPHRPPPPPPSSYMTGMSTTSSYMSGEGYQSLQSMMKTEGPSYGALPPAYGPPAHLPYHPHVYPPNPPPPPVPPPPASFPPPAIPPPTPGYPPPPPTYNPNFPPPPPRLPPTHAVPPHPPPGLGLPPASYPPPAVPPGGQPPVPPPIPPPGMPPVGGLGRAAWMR

What is called inhibition is the change of the read-out against control, counted positive when it falls. For `COc1ncc(-c2cnc(N(C(=O)NCC(C)(F)F)[C@H]3CC[C@H](Nc4ncc(C(F)(F)F)c(-c5n[nH]cc5Cl)n4)CC3)cn2)cn1` [Example 740, 1-(trans-4-((4-(4-chloro-1H-pyrazol-3-yl)-5-(trifluoromethyl)pyrimidin-2-yl)amino)cyclohexyl)-3-(2,2-difluoropropyl)-1-(5-(2-methoxypyrimidin-5-yl)pyrazin-2-yl)urea], the inhibition at 1 µM on CDK12/CycK complex turned out to be 86%; in the test with A2780 cells, 96%.
For `COc1ncc(-c2cnc(N(C(=O)OCC(C)(C)O)[C@H]3CC[C@H](Nc4ncc(C(F)(F)F)c(-c5cncc(S(C)(=O)=O)c5)n4)CC3)cn2)cn1` [Example 836, 2-hydroxy-2-methylpropyl (trans-4-((4-(5-(methanesulfonyl)pyridin-3-yl)-5-(trifluoromethyl)pyrimidin-2-yl)amino)cyclohexyl) (5-(2-methoxypyrimidin-5-yl)pyrazin-2-yl)carbamate], the inhibition at 1 µM on CDK12/CycK complex stood at 106%; with A2780 cells, 99%.
In the same order, the values of `COc1ncc(-c2ccc(N(C(=O)NCC(F)(F)F)[C@H]3CC[C@H](Nc4ncc(C(F)(F)F)c(-c5n[nH]cc5Cl)n4)CC3)nc2)cn1` [Example 729, 1-(trans-4-((4-(4-chloro-1H-pyrazol-3-yl)-5-(trifluoromethyl)pyrimidin-2-yl)amino)cyclohexyl)-1-(5-(2-methoxypyrimidin-5-yl)pyridin-2-yl)-3-(2,2,2-trifluoroethyl)urea] are 92% and 98%.
In the same order, the values of `COc1ncc(-c2cnc(N(C(=O)OCCN(C)C)[C@H]3CC[C@H](Nc4ncc(C(F)(F)F)c(-c5cncc(S(C)(=O)=O)c5)n4)CC3)cn2)cn1` [Example 767, 2-(dimethylamino)ethyl (trans-4-((4-(5-(methanesulfonyl)pyridin-3-yl)-5-(trifluoromethyl)pyrimidin-2-yl)amino)cyclohexyl) (5-(2-methoxypyrimidin-5-yl)pyrazin-2-yl)carbamate] are 102% and 99%.
For the molecule `COc1ncc(-c2cnc(N(C(=O)CCC(F)F)[C@H]3CC[C@H](Nc4ncc(C(F)(F)F)c(-c5cncc(S(C)(=O)=O)c5)n4)CC3)cn2)cn1` [Example 826, 4,4-difluoro-N-(trans-4-((4-(5-(methanesulfonyl)pyridin-3-yl)-5-(trifluoromethyl)pyrimidin-2-yl)amino)cyclohexyl)-N-(5-(2-methoxypyrimidin-5-yl)pyrazin-2-yl)butanamide], the inhibition at 1 µM on CDK12/CycK complex turned out to be 106%; in the test on A2780 cells, 98%.
Regarding `COc1ncc(-c2cnc(N(C(=O)OCC(C)(C)O)[C@H]3CC[C@H](Nc4ncc(C(F)(F)F)c(-c5n[nH]cc5Cl)n4)CC3)cn2)cn1` [Example 841, 2-hydroxy-2-methylpropyl (trans-4-((4-(4-chloro-1H-pyrazol-3-yl)-5-(trifluoromethyl)pyrimidin-2-yl)amino)cyclohexyl) (5-(2-methoxypyrimidin-5-yl)pyrazin-2-yl)carbamate], the figures for the inhibition at 1 µM at CDK12/CycK complex and in the test with A2780 cells were 79% and 99%, respectively.
`COc1ncc(-c2ccc(N(C(=O)NCC(F)F)[C@H]3CC[C@H](Nc4ncc(C(F)(F)F)c(-c5n[nH]cc5Cl)n4)CC3)nc2)cn1` [Example 693, 1-(trans-4-((4-(4-chloro-1H-pyrazol-3-yl)-5-(trifluoromethyl)pyrimidin-2-yl)amino)cyclohexyl)-3-(2,2-difluoroethyl)-1-(5-(2-methoxypyrimidin-5-yl)pyridin-2-yl)urea]: the inhibition at 1 µM at CDK12/CycK complex worked out at 100%; in the test on A2780 cells, 98%.
In the same order, the values of `CCNC(=O)N(c1cnc(-c2cnn(C)c2)cn1)[C@H]1CC[C@H](Nc2ncc(C(F)(F)F)c(-c3ccn(C(F)F)n3)n2)CC1` [Example 764, 1-(trans-4-((4-(1-(difluoromethyl)-1H-pyrazol-3-yl)-5-(trifluoromethyl)pyrimidin-2-yl)amino)cyclohexyl)-3-ethyl-1-(5-(1-methyl-1H-pyrazol-4-yl)pyrazin-2-yl)urea] are 91% and 95%.
The corresponding values for `CCOCC(=O)N(c1cnc(-c2cnc(OC)nc2)cn1)[C@H]1CC[C@H](Nc2ncc(C(F)(F)F)c(-c3cncc(S(C)(=O)=O)c3)n2)CC1` [Example 827, 2-ethoxy-N-(trans-4-((4-(5-(methanesulfonyl)pyridin-3-yl)-5-(trifluoromethyl)pyrimidin-2-yl)amino)cyclohexyl)-N-(5-(2-methoxypyrimidin-5-yl)pyrazin-2-yl)acetamide] are 109% and 99%.
Turning to `COc1ncc(-c2cnc(N(C(=O)NCC3(F)CC3)[C@H]3CC[C@H](Nc4ncc(C(F)(F)F)c(-c5n[nH]cc5Cl)n4)CC3)cn2)cn1` [Example 742, 1-(trans-4-((4-(4-chloro-1H-pyrazol-3-yl)-5-(trifluoromethyl)pyrimidin-2-yl)amino)cyclohexyl)-3-((1-fluorocyclopropyl)methyl)-1-(5-(2-methoxypyrimidin-5-yl)pyrazin-2-yl)urea], the inhibition at 1 µM on CDK12/CycK complex was determined as 87%; in the test with A2780 cells, 96%.
The corresponding values for `COc1ncc(-c2cnc(N(C(=O)NCC(F)F)[C@H]3CC[C@H](Nc4ncc(C(F)(F)F)c(-c5n[nH]cc5Cl)n4)CC3)cn2)cn1` [Example 744, 1-(trans-4-((4-(4-chloro-1H-pyrazol-3-yl)-5-(trifluoromethyl)pyrimidin-2-yl)amino)cyclohexyl)-3-(2,2-difluoroethyl)-1-(5-(2-methoxypyrimidin-5-yl)pyrazin-2-yl)urea] are 92% and 97%.
As to `COc1ncc(-c2ccc(N(C(=O)OCCN(C)C)[C@H]3CC[C@H](Nc4ncc(C(F)(F)F)c(-c5cncc(S(C)(=O)=O)c5)n4)CC3)nc2)cn1` [Example 848, 2-(dimethylamino)ethyl (trans-4-((4-(5-(methanesulfonyl)pyridin-3-yl)-5-(trifluoromethyl)pyrimidin-2-yl)amino)cyclohexyl) (5-(2-methoxypyrimidin-5-yl)pyridin-2-yl)carbamate], the “1 μM inhibitory rate (%)” value on CDK12/CycK complex is recorded as 108%; in the test on A2780 cells, 99%.
`CCNC(=O)N(c1cnc(-c2cnc(OC)nc2)cn1)[C@H]1CC[C@H](Nc2ncc(C(F)(F)F)c(-c3cncc(S(C)(=O)=O)c3)n2)CC1` [Example 799, 3-ethyl-1-(trans-4-((4-(5-(methanesulfonyl)pyridin-3-yl)-5-(trifluoromethyl)pyrimidin-2-yl)amino)cyclohexyl)-1-(5-(2-methoxypyrimidin-5-yl)pyrazin-2-yl)urea]: the inhibition at 1 µM at CDK12/CycK complex was found to be 96%; with A2780 cells it was 99%.
Regarding `COc1ncc(-c2cnc(N(C(=O)NCC(F)(F)F)[C@H]3CC[C@H](Nc4ncc(C(F)(F)F)c(-c5n[nH]cc5Cl)n4)CC3)cn2)cn1` [Example 743, 1-(trans-4-((4-(4-chloro-1H-pyrazol-3-yl)-5-(trifluoromethyl)pyrimidin-2-yl)amino)cyclohexyl)-1-(5-(2-methoxypyrimidin-5-yl)pyrazin-2-yl)-3-(2,2,2-trifluoroethyl)urea], the results for the inhibition at 1 µM at CDK12/CycK complex and in the test with A2780 cells were 81% and 95%, respectively.
In the case of `Cn1cc(-c2cnc(N(C(=O)OCC(F)F)[C@H]3CC[C@H](Nc4ncc(C(F)(F)F)c(-c5cncc(S(C)(=O)=O)c5)n4)CC3)cn2)cn1` [Example 820, 2,2-difluoroethyl (trans-4-((4-(5-(methanesulfonyl)pyridin-3-yl)-5-(trifluoromethyl)pyrimidin-2-yl)amino)cyclohexyl) (5-(1-methyl-1H-pyrazol-4-yl)pyrazin-2-yl)carbamate], the inhibition at 1 µM at CDK12/CycK complex and with A2780 cells was 99% each time.
Regarding `Cn1cc(-c2cnc(N(C(=O)OCC(C)(C)O)[C@H]3CC[C@H](Nc4ncc(C(F)(F)F)c(-c5cncc(S(C)(=O)=O)c5)n4)CC3)cn2)cn1` [Example 838, 2-hydroxy-2-methylpropyl (trans-4-((4-(5-(methanesulfonyl)pyridin-3-yl)-5-(trifluoromethyl)pyrimidin-2-yl)amino)cyclohexyl) (5-(1-methyl-1H-pyrazol-4-yl)pyrazin-2-yl)carbamate], the inhibition at 1 µM at CDK12/CycK complex came out at 103%; in the test with A2780 cells, 98%.
